# Target: T1, CFTR (Homo sapiens, UniProt P13569, DEL508-508)
# T1 construct: endogenous in cells; host or cells: primary human bronchial epithelial cells, F508del/MF genotype
# Test: HBE Assay: Ussing chamber assay of CFTR-mediated short-circuit currents in F508del/MF-HBE cells with 1 μM Ivacaftor
# Type: cell-based
# Details: single fixed concentration of 10 μM with 1 μM Ivacaftor, 18-24 hours, 20% human serum
# Experimental: Ussing chamber experiments were performed using human bronchial epithelial (HBE) cells derived from CF subjects heterozygous for F508del and a minimal function CFTR mutation (F508del/MF-HBE) and cultured as previously described (Neuberger T, Burton B, Clark H, Van Goor F Methods Mol Biol 2011:741:39-54). After four days the apical media was removed, and the cells were grown at an air liquid interface for >14 days prior to use.
# (§1) To isolate the CFTR-mediated short-circuit (ISC) current, F508del/MF-HBE grown on Costar® Snapwell™ cell culture inserts were mounted in an Ussing chamber and the transepithelial ISC was measured under voltage-clamp recording conditions (Vhold=0 mV) at 37° C. The basolateral solution contained (in mM) 145 NaCl, 0.83 K2HIPO4, 3.3 KH2PO4, 1.2 MgCl2, 1.2 CaCl2), 10 Glucose, 10 HEPES (pH adjusted to 7.4 with NaOH) and the apical solution contained (in mM) 145 NaGluconate, 1.2 MgCl2, 1.2 CaCl2), 10 glucose, 10 HEPES (pH adjusted to 7.4 with NaOH) and 30 μM amiloride to block the epithelial sodium channel. Forskolin (20 μM) was added to the apical surface to activate CFTR, followed by apical addition of a CFTR inhibitor cocktail consisting of BPO, GlyH-101, and CFTR inhibitor 172 (each at 20 μM final assay concentration) to specifically isolate CFTR currents. The CFTR-mediated ISC (μA/cm^2) for each condition was determined from the peak forskolin response to the steady-state current following inhibition.
# The activity of the CFTR corrector compounds on the CFTR-mediated ISC was determined in Ussing chamber studies as described above. The F508del/MF-HBE cell cultures were either incubated with the corrector compounds at a range of concentrations in combination with 1 μM Ivacaftor or were incubated with the corrector compounds at a single fixed concentration of 10 μM in combination with 1 μM Ivacaftor for 18-24 hours at 37° C. and in the presence of 20% human serum. The concentration of corrector compounds with 1 μM Ivacaftor during the 18-24 hours incubations was kept constant throughout the Ussing chamber measurement of the CFTR-mediated ISC to ensure compounds were present throughout the entire experiment.
# as §1, with “K2HPO4,” for “K2HIPO4,”
# T1 sequence (P13569 with tags, fused parts or gaps DEL508-508): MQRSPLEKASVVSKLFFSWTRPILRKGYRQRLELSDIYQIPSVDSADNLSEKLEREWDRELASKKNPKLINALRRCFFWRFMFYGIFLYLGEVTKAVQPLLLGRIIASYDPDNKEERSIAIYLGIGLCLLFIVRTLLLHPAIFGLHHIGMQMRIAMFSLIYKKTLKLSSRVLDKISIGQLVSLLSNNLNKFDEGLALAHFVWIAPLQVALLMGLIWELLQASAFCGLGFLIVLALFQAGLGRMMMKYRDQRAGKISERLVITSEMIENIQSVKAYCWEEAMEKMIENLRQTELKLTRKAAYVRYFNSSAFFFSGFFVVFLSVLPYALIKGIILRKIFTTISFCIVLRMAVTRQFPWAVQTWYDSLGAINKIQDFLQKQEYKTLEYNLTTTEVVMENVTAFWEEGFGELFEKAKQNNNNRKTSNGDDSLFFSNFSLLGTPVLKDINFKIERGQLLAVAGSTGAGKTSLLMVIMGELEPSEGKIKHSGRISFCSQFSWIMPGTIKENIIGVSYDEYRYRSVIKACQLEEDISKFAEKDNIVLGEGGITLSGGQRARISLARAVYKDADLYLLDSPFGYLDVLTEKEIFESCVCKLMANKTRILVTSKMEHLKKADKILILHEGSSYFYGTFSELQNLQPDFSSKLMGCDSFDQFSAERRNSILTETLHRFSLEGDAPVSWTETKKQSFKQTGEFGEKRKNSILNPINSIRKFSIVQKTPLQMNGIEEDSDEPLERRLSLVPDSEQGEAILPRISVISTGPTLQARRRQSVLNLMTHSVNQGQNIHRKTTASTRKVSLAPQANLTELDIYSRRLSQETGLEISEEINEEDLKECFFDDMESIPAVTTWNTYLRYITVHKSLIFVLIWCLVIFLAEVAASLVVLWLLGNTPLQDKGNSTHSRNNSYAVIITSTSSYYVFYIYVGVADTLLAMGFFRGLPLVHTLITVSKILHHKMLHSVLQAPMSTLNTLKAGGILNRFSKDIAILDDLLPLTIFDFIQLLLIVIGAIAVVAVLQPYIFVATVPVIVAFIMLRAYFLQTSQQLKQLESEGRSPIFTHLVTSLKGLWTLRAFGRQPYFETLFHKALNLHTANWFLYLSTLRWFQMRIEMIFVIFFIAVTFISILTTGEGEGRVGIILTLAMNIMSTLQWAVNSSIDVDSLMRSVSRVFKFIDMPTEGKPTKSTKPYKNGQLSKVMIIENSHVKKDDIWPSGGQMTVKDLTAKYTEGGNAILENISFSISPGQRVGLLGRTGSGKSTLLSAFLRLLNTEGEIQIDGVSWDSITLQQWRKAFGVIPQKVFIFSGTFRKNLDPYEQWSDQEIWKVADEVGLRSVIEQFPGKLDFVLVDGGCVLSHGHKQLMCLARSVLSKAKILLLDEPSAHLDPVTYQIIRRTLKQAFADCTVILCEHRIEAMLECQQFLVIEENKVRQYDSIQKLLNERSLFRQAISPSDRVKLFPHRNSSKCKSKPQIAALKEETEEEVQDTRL
row,HBE Activity at 10 μM (%),Structure (SMILES)
1,+++ (+++ is >60%),Cc1cccc(CC2COC2)c1-c1nc2nc(c1C)OC[C@@H](CC(C)(C)C)N(Cc1ncc(OC(C)C)cn1)C(=O)c1cccc(c1)S(=O)(=O)N2 [Compound 347]
2,+++ (+++ is >60%),Cc1cccc(C)c1-c1nc2nc(c1C)OC[C@@H](CC1CCC1)N(Cc1ncc(OC(C)C)cn1)C(=O)c1cccc(c1)S(=O)(=O)N2 [Compound 355]

# Same assay, conditions: single fixed concentration of 10 μM, with 1 μM Ivacaftor, 20% human serum
row,Structure (SMILES),HBE Activity at 10 μM
1,"Cc1cccc(CC2CCOCC2)c1-c1nc2nc(c1C)OC[C@@H](CC(C)(C)C)N(Cc1ccc(N3CCOCC3)cn1)C(=O)c1cccc(c1)S(=O)(=O)N2 (atropisomer, axis not shown) [Compound 275]",+++ (+++ is >600%)
2,"Cc1cccc(CC(C)C)c1-c1nc2nc(c1C)OC[C@@H](CC(C)(C)C)N(Cc1ncc(N(C)CC(C)(C)C)cn1)C(=O)c1cccc(c1)S(=O)(=O)N2 (atropisomer, axis not shown; (M)) [Compound 210, (5M,11R)-11-(2,2-dimethylpropyl)-12-({5-[(2,2-dimethylpropyl)(methyl)amino]pyrimidin-2-yl}methyl)-7-methyl-6-[2-methyl-6-(2-methylpropyl)phenyl]-9-oxa-2λ^6-thia-3,5,12,19-tetraazatricyclo[12.3.1.14,8]nonadeca-1(17),4(19),5,7,14(18),15-hexaene-2,2,13-trione]",+++ (+++ is >600%)
3,"Cc1cccc(CC(C)C)c1-c1nc2nc(c1C)OC[C@@H](CC(C)(C)C)NC(=O)c1cccc(c1)S(=O)(=O)N2 (atropisomer, axis not shown) [Compound 226]",+++ (+++ is >600%)
4,"Cc1cccc(CC(C)C)c1-c1nc2nc(c1C)OC[C@@H](C(C)C)N(Cc1nccc(N(C)C(C)C)n1)C(=O)c1cccc(c1)S(=O)(=O)N2 (atropisomer, axis not shown) [Compound 232]",+++ (+++ is >600%)

# More lines, now with the values ahead:
row,HBE Activity at 10 μM,Structure (SMILES)
1,+++ (+++ is >600%),"Cc1cccc(CC2CCCC2)c1-c1nc2nc(c1C)OC[C@@H](CC(C)(C)C)N(Cc1ncc(N3CCC(C)(C)C3)cn1)C(=O)c1cccc(c1)S(=O)(=O)N2 (atropisomer, axis not shown) [Compound 270]"
2,+++ (+++ is >600%),"Cc1cccc(CC2CCCC2)c1-c1nc2nc(c1C)OC[C@@H](CC(C)(C)C)N(Cc1cccc(N3CCC[C@H]3C)n1)C(=O)c1cccc(c1)S(=O)(=O)N2 (atropisomer, axis not shown) [Compound 269]"

# Same assay, conditions: with 1 μM Ivacaftor, 18-24 hours, 20% human serum
Structure (SMILES),EC50,HBE Max Activity
"Cc1cccc(CC(C)C)c1-c1nc2nc(c1C)OC[C@@H](CC(C)C)N(Cc1ncc(N3CCC(C)(C)C3)cn1)C(=O)c1cccc(c1)S(=O)(=O)N2 (atropisomer, axis not shown) [Compound 241]",< 1000 nM,+++ (+++ is >600%)
"Cc1cccc(CC2CCCCC2)c1-c1nc2nc(c1C)OC[C@@H](CC(C)(C)C)NC(=O)c1cccc(c1)S(=O)(=O)N2 (atropisomer, axis not shown) [Compound 312]",< 1000 nM,++ (++ is 30-60%)
"Cc1cccc(C(C)C)c1-c1nc2nc(c1C)OC[C@@H](CC(C)(C)C)N(Cc1ncc(N3CCOCC3)cn1)C(=O)c1cccc(c1)S(=O)(=O)N2 (single isomer, unassigned) [Compound 208]",< 1000 nM,+++ (+++ is >600%)
"Cc1cccc(CC2CCCCC2)c1-c1nc2nc(c1C(F)(F)F)OC[C@@H](CC(C)(C)C)N(Cc1ncc(N3CCOCC3)cn1)C(=O)c1cccc(c1)S(=O)(=O)N2 (atropisomer, axis not shown) [Compound 244]",< 1000 nM,+++ (+++ is >600%)
"Cc1cccc(CC(C)(C)C)c1-c1nc2nc(c1C)OC[C@@H](CC(C)(C)C)N(Cc1ncc(N3CCC(C)(C)C3)cn1)C(=O)c1cccc(c1)S(=O)(=O)N2 (single isomer, unassigned) [Compound 215]",< 1000 nM,+++ (+++ is >600%)
Cc1c2nc(nc1-c1ccccc1C(C)(C)C)NS(=O)(=O)c1cccc(c1)C(=O)N(Cc1ccc(N3CCOCC3)cn1)[C@H](CC(C)(C)C)CO2 [Compound 181],< 1000 nM,+++ (+++ is >600%)
"Cc1cccc(CC2CCCCC2)c1-c1nc2nc(c1C)OC[C@@H](CC(C)(C)C)N(Cc1ncccc1N1CCOCC1)C(=O)c1cccc(c1)S(=O)(=O)N2 (atropisomer, axis not shown) [Compound 310]",< 1000 nM,+++ (+++ is >600%)
Cc1cccc(CC(C)C)c1-c1nc2nc(c1C)OC[C@@H](C(C)C)N(Cc1ncc(N3CCC(C)(C)C3)cn1)C(=O)c1cccc(c1)S(=O)(=O)N2 [Compound 240],1000 to 3000 nM,+++ (+++ is >600%)
"Cc1cccc(CC2CCCCC2)c1-c1nc2nc(c1C)OC[C@@H](CC(C)(C)C)N(Cc1ccc(N3CCCCC3)cn1)C(=O)c1cccc(c1)S(=O)(=O)N2 (atropisomer, axis not shown) [Compound 307]",< 1000 nM,+++ (+++ is >600%)
"COCCN(C)c1cnc(CN2C(=O)c3cccc(c3)S(=O)(=O)Nc3nc(c(C)c(-c4c(C)cccc4CC(C)C)n3)OC[C@H]2CC(C)(C)C)nc1 (atropisomer, axis not shown) [Compound 294]",< 1000 nM,+++ (+++ is >600%)
"COCCN(C)c1ccc(CN2C(=O)c3cccc(c3)S(=O)(=O)Nc3nc(c(C)c(-c4c(C)cccc4CC(C)C)n3)OC[C@H]2CC(C)(C)C)nc1 (atropisomer, axis not shown) [Compound 292]",< 1000 nM,+++ (+++ is >600%)
Cc1cccc(C)c1-c1nc2nc(c1C)OC[C@@H](CC(C)(C)C)N(Cc1ccc(N3CCCCC3)cn1)C(=O)c1cccc(c1)S(=O)(=O)N2 [Compound 85],< 1000 nM,+++ (+++ is >600%)

# Results, then the compound that gave them:
EC50,HBE Max Activity,Structure (SMILES)
< 1000 nM,+++ (+++ is >600%),"Cc1cccc(CC2CCCCC2)c1-c1nc2nc(c1C)OC[C@@H](CC(C)(C)C)N(Cc1ncc(N3CCOCC3)cn1)C(=O)c1cccc(c1)S(=O)(=O)N2 (atropisomer, axis not shown) [Compound 306]"
< 1000 nM,+++ (+++ is >600%),"Cc1cccc(CC2CCCC2)c1-c1nc2nc(c1C)OC[C@@H](CC(C)(C)C)N(Cc1ncc(CC(C)C)cn1)C(=O)c1cccc(c1)S(=O)(=O)N2 (atropisomer, axis not shown) [Compound 268]"
< 1000 nM,+++ (+++ is >600%),"COc1ccc(CN2C(=O)c3cccc(c3)S(=O)(=O)Nc3nc(c(C)c(-c4c(C)cccc4CC4CCCCC4)n3)OC[C@H]2CC(C)(C)C)nc1 (atropisomer, axis not shown) [Compound 301]"
1000 to 3000 nM,+++ (+++ is >600%),"Cc1cccc(CC2CCCCC2)c1-c1nc2nc(c1C)OC[C@@H](CC(C)(C)C)N(Cc1ncc(N3CCC(C)(C)C3)cn1)C(=O)c1cccc(c1)S(=O)(=O)N2 (atropisomer, axis not shown) [Compound 254]"
< 1000 nM,+++ (+++ is >600%),COCCN(C)c1cnc(CN2C(=O)c3cccc(c3)S(=O)(=O)Nc3nc(c(C)c(-c4c(C)cccc4CC4CCCCC4)n3)OC[C@H]2CC(C)(C)C)nc1 [Compound 283]
< 1000 nM,+++ (+++ is >600%),"Cc1cccc(CC2CCCCC2)c1-c1nc2nc(c1C)OC[C@@H](CC(C)(C)C)N(Cc1nccc(N(C)C(C)C)n1)C(=O)c1cccc(c1)S(=O)(=O)N2 (atropisomer, axis not shown) [Compound 262]"
< 1000 nM,+++ (+++ is >600%),"Cc1cccc(CC2CCCC2)c1-c1nc2nc(c1C)OC[C@@H](CC(C)(C)C)N(Cc1ccc(OC(C)C)cn1)C(=O)c1cccc(c1)S(=O)(=O)N2 (atropisomer, axis not shown) [Compound 267]"
1000 to 3000 nM,+++ (+++ is >600%),COCCN(C)c1cnc(CN2C(=O)c3cccc(c3)S(=O)(=O)Nc3nc(c(C)c(-c4c(C)cccc4CC4CCCCC4)n3)OC[C@H]2CC(C)(C)C)cn1 [Compound 278]

# From US20230374038A1, “MODULATORS OF CYSTIC FIBROSIS TRANSMEMBRANE CONDUCTANCE REGULATOR” (VERTEX PHARMACEUTICALS INCORPORATED, priority 2020, published 2023)
